{"source": "patent US20260151367A1", "about": "“KIT TO PROMOTE DEVELOPMENTAL MYELINATION” (SOCIÉTÉ DES PRODUITS NESTLÉ S.A., priority 2022, published 2026)", "molecules": {"B1": {"name": "α-lactalbumin: whey protein of 123 amino acids and 4 disulfide bridges, molecular weight 14.2K Daltons (protein, UniProt P00711 20-142, looked up)", "Alpha-lactalbumin": "EQLTKCEVFRELKDLKGYGGVSLPEWVCTTFHTSGYDTQAIVQNNDSTEYGLFQINNKIWCKDDQNPHSSNICNISCDKFLDDDLTDDIMCVKKILDKVGINYWLAHKALCSEKLDQWLCEKL"}}, "key": {"[1]": {"system": "myelin water fraction (MWF)", "assay": "Linear model of myelin versus nutrient intake, all ages included", "format": "in vivo, human", "details": "for association with myelin levels in age-adjusted models across age windows: all ages, linear model; for nutIntake*logAge estimate / nutIntake estimate: linear model across ages, Box Cox transformed MWF; for nutIntake*logAge estimate: coefficient of the intake x log age interaction term; for nutIntake estimate: coefficient of the nutrient intake term", "procedure": "The inventors have investigated the developmental dynamics of nutrient-myelin interactions from infancy to early childhood, using myelin imaging as a marker for brain maturation. Brain neuroimaging and infant nutritional intake information were analyzed from 293 children from a longitudinal cohort study in the US. A sliding window approach was used to investigate the relationship between the nutrient intake and brain region myelination over a continuous set of age windows.\nFor inclusion in the analysis of the present study, 293 children between 6 months and 60 months of age were selected who met the following criteria: 1. Singleton full-term (>37 weeks) pregnancy; 2. Uncomplicated pregnancy (i.e., no reports of pre-eclampsia, gestational hypertension or gestation diabetes mellitus, GDM); 3. No reports of abnormalities on fetal ultrasound; 4. Infant 5 minute APGAR scores ≥8; 5. Infant birth weight greater than 1500 g; 6. No reported history of neurological trauma in the child; 7. No reported sibling or parental psychiatric history, including autism; and 8. No reports of major depressive disorder requiring medication in the mother during pregnancy or in the 6 months prior to becoming pregnant. In addition, children had to have a successful MRI scan and time-matched nutrition intake information for at least one 24-hour period within a week of the MRI.\nFrom the acquired mcDESPOT data, the myelin water fraction (MWF) was calculated using a processing pipeline that includes linear alignment of the SPGR, IR-SPGR, and bSSFP images to account for subtle intra-scan head movement, non-parenchyma voxel removal, and correction of flip angle errors and off-resonance inhomogeneities using DESPOT1-HIFI and DESPOT2-FM. A 3-pool tissue model was fit to the multi-angle SPGR and bSSFP data to estimate the MWF, a surrogate and non-invasive measure of myelin content. The MWF images (maps) were then non-linearly aligned to a common analysis space in approximate MNI space using a previously described multi-step approach that first aligns the subject's high flip angle T1 weighted SPGR image to one of 14 age-specific templates and then to an overall study-specific template using non-linear 3D deformation, ANTS. The calculated transformation matrices are then applied to the quantitative MWF maps.\nNutrient intake data was collected through the Automated Self-Administered 24-hour dietary assessment tool (ASA-24). The average daily nutrient intake per scan age was calculated, resulting in 293 observations with 88 nutrients. Values for amino acids and phospholipids, including sphingomyelin, were retrieved from the relevant United States Department of Agriculture (USDA) databases. The USDA choline database contains the values of free choline, glycerophosphocholine, phosphocholine, phosphatidylcholine and sphingomyelin for about 630 foods. […] The oligosaccharides 3′SL and 6′SL are only found in milk products, values of 114 and 23 mg/100 g were used for their respective concentrations in cow's milk. For the estimation of oligofructose, the inventors based their calculations on Moshfegh et al. J. Nutr. 1999; 129(7 Suppl): 1407s-11s. We then mapped the foods reported in ASA-24 to the corresponding items in the USDA database and calculated the daily totals.\n(§1) A linear model, like, was fitted to the dataset, all ages included, for each nutrient. Linear models with significant and positive coefficients for the nutrient intake terms were considered as indicative of a linear positive correlation with myelin. The myelin water fraction was Box Cox transformed to make it more symmetric. In addition, to account for possibly non-linear associations and for correlations between the nutrients, we performed a regression model using a random forest and used a feature selection algorithm for finding all relevant variables."}, "[2]": {"system": "myelin water fraction (MWF)", "assay": "Random forest regression with feature selection for nutrients across ages", "format": "in vivo, human", "details": "listed in order of average importance after log Age", "text": "as §1\nFIG. 2 compares the values of the transformed MWF with the values predicted by the random forest, on a test set."}, "myelination": {"system": "myelination", "details": "potentially via a reduction in sialylated binding targets for the myelin associated glycoprotein; cited from earlier work"}}}
{"molecule": "CC(=O)N[C@H]1[C@H]([C@H](O)[C@H](O)CO)O[C@@](O[C@H]2[C@@H](O)[C@@H](CO)O[C@@H](O[C@H]3[C@H](O)[C@@H](O)C(O)O[C@@H]3CO)[C@@H]2O)(C(=O)O)C[C@@H]1O", "note": "(stereo partly shown) [3′SL, 3′-sialyllactose]", "values": [{"measurement": "association with myelin levels in age-adjusted models across age windows", "setting": "[1]", "value": "linked with higher myelin levels"}, {"measurement": "nutIntake*logAge estimate", "setting": "[1]", "value": 0.000}, {"measurement": "nutIntake estimate", "setting": "[1]", "value": 0.002}, {"measurement": "variables selected by the random forest model, sorted by average importance", "setting": "[2]", "value": "selected by the random forest model"}]}
{"molecule": "CC(=O)N[C@H]1[C@H]([C@H](O)[C@H](O)CO)O[C@@](OC[C@H]2O[C@@H](O[C@H]3[C@H](O)[C@@H](O)[C@H](O)O[C@@H]3CO)[C@H](O)[C@@H](O)[C@H]2O)(C(=O)O)C[C@@H]1O", "note": "[6′SL, 6′-sialyllactose]", "values": [{"measurement": "association with myelin levels in age-adjusted models across age windows", "setting": "[1]", "value": "linked with higher myelin levels"}, {"measurement": "nutIntake*logAge estimate", "setting": "[1]", "value": "−0.001"}, {"measurement": "nutIntake estimate", "setting": "[1]", "value": 0.009}, {"measurement": "impact on myelination in a preclinical study", "setting": "myelination", "value": "impact myelination"}]}
{"molecule": "[Ca+2]", "note": "[Calcium]", "values": [{"measurement": "variables selected by the random forest model, sorted by average importance", "setting": "[2]", "value": "selected by the random forest model"}]}
{"molecule": "CC1=C(/C=C/C(C)=C/C=C/C(C)=C/C=C/C=C(C)/C=C/C=C(C)/C=C/C2=C(C)CCCC2(C)C)C(C)(C)CCC1", "note": "[Carotene, beta]", "values": [{"measurement": "variables selected by the random forest model, sorted by average importance", "setting": "[2]", "value": "selected by the random forest model"}]}
{"molecule": "CC[C@H](C)[C@H](N)C(=O)O", "note": "[Isoleucine]", "values": [{"measurement": "variables selected by the random forest model, sorted by average importance", "setting": "[2]", "value": "selected by the random forest model"}]}
{"molecule": "NCCCC[C@H](N)C(=O)O", "note": "[Lysine]", "values": [{"measurement": "association with myelin levels in age-adjusted models across age windows", "setting": "[1]", "value": "linked with higher myelin levels"}, {"measurement": "nutIntake*logAge estimate", "setting": "[1]", "value": "−0.005"}, {"measurement": "nutIntake estimate", "setting": "[1]", "value": 0.033}]}
{"molecule": "CSCC[C@H](N)C(=O)O", "note": "[Methionine]", "values": [{"measurement": "variables selected by the random forest model, sorted by average importance", "setting": "[2]", "value": "selected by the random forest model"}]}
{"molecule": "[P]", "note": "[Phosphorus]", "values": [{"measurement": "variables selected by the random forest model, sorted by average importance", "setting": "[2]", "value": "selected by the random forest model"}]}
{"molecule": "N[C@@H](CO)C(=O)O", "note": "[Serine]", "values": [{"measurement": "variables selected by the random forest model, sorted by average importance", "setting": "[2]", "value": "selected by the random forest model"}]}
{"molecule": "Octadecadienoic acid [Octadecadienoic (Linoleic, 18:2)]", "values": [{"measurement": "variables selected by the random forest model, sorted by average importance", "setting": "[2]", "value": "selected by the random forest model"}]}
{"molecule": "Phosphatidylcholine", "values": [{"measurement": "variables selected by the random forest model, sorted by average importance", "setting": "[2]", "value": "selected by the random forest model"}]}
{"molecule": "Phosphatidylinositol", "values": [{"measurement": "variables selected by the random forest model, sorted by average importance", "setting": "[2]", "value": "selected by the random forest model"}]}
{"molecule": "Phosphatidylserine", "values": [{"measurement": "variables selected by the random forest model, sorted by average importance", "setting": "[2]", "value": "selected by the random forest model"}]}
{"molecule": "Sphingomyelin", "values": [{"measurement": "variables selected by the random forest model, sorted by average importance", "setting": "[2]", "value": "selected by the random forest model"}]}
{"molecule": "B1", "values": [{"measurement": "association with myelin levels in age-adjusted models across age windows", "setting": "[1]", "value": "linked with higher myelin levels"}, {"measurement": "nutIntake*logAge estimate", "setting": "[1]", "value": "−0.014"}, {"measurement": "nutIntake estimate", "setting": "[1]", "value": 0.097}]}
